The test system of one assay is Mus musculus. Description: Anticonvulsant activity was determined in MES model, after 1 hour post administration in mice. Type of assay: functional.
Assay [1] addresses T1, Muscarinic acetylcholine receptor M1 (Rattus norvegicus, UniProt P08482).
T1 sequence (P08482 whole entry): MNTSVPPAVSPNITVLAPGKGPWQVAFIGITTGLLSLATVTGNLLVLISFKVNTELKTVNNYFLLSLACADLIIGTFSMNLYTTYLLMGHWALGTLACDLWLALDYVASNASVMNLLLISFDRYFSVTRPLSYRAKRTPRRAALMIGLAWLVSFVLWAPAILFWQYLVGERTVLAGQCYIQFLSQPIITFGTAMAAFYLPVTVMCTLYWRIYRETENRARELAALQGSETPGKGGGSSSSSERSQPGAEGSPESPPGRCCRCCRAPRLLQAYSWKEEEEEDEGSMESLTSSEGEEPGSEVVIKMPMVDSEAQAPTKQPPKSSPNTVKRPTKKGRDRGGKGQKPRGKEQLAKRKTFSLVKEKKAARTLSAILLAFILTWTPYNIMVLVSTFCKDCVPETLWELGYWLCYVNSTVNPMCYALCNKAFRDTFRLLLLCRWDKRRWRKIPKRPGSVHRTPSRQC
Kind of assay: Displacement of [3H]pirenzepine from muscarinic M1 receptor of rat cortex homogenates. Background: Displacement assays read how much labelled ligand stays bound in the presence of the test substance.

The target in assay [2] is T2, Muscarinic acetylcholine receptor M2 (Rattus norvegicus, UniProt P10980).
T2 sequence (P10980 whole entry): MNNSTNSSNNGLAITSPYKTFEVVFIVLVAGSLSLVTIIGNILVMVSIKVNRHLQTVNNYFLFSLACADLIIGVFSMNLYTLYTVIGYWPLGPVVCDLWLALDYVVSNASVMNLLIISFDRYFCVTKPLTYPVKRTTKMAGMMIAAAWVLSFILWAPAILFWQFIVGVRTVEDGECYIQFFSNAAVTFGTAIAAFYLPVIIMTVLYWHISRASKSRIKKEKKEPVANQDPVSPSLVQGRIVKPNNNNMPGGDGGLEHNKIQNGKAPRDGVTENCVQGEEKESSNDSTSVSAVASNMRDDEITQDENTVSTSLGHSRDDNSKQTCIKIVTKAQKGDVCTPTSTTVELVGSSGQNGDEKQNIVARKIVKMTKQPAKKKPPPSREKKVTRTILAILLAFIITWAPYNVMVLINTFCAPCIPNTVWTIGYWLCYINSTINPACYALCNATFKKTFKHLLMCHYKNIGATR
Kind of assay: Displacement of [3H]QNB (quinuclidinyl benzylate) from muscarinic M2 receptor of rat heart homogenates. Type of assay: tissue-based.

Each structure is given as a SMILES string. Where “and” joins values, the source holds several entries; their conditions need not be identical. Equal values may be shown once.

On to `CCN(CC)CC#CCN1C(=O)NC(c2ccccc2)(c2ccccc2)C1=O`, for which the 50% effective dose (ED50) – broadly, the midpoint of the dose-response relation – in the assay on Mus musculus was determined as 83.6 mg/kg. The Ki (usually the equilibrium dissociation constant of an inhibitor or competing ligand from its target) came out at 0.38 µM in assay [1] and 0.95 µM in assay [2].

With `CCN(CC)CC#CCN1C(=O)CC2(C1=O)c1ccccc1-c1ccccc12`, in the assay on Mus musculus, the ED50 is 23.7 mg/kg and 58 µmol/kg. Further, the Ki in assay [1] is 1.63 µM; in assay [2] it was over 10 µM.

For `CCN(CC)CC#CCN1C(=O)c2ccccc2C1=O`, the inhibition constant (Ki) was found to be 0.03 µM in assay [1] and 0.1 µM in assay [2].

`O=C1CC2(CCc3ccccc32)C(=O)N1CC#CCN1CCCC1` (stereo not drawn) came in with a 50% effective dose (ED50) in the assay on Mus musculus of over 600 mg/kg. For the same compound, the values for the inhibition constant Ki in assay [1] and in assay [2] were 1.59 µM and over 10 µM, respectively.

Take `CC(C)N(CC#CCN1C(=O)CC2(C1=O)c1ccccc1-c1ccccc12)C(C)C`: the inhibition constant Ki was 1.62 µM in assay [1] and over 10 µM in assay [2].

With `CCN(CC)CC#CCN1C(=O)CC(c2ccccc2)(c2ccccc2)C1=O`, in the assay with Mus musculus, the ED50 was 20.1 mg/kg and 49 µmol/kg. In addition, the figures for the inhibition constant Ki in assay [1] and in assay [2] were 0.12 µM and 0.38 µM, respectively.

With `CCN(CC)CC#CCN1C(=O)CC2(C1=O)c1ccccc1CCc1ccccc12`, the ED50 in the assay on Mus musculus is 9.6 mg/kg and 22 µmol/kg. Moreover, the Ki in assay [1] was 0.46 µM; in assay [2] it was 2.09 µM.

Consider `CCN(CC)CC#CCN1C(=O)CC(c2ccccc2)C1=O` (stereo not drawn), for which the ED50 in the assay with Mus musculus is 48.9 mg/kg and 126 µmol/kg. For the same compound, the Ki is 2.3 µM in assay [1] and over 10 µM in assay [2].

With `O=C1NC(c2ccccc2)(c2ccccc2)C(=O)N1CC#CCN1CCCC1`, the Ki in assay [1] is 0.64 µM; in assay [2], over 10 µM.

Consider `CCN(CC)CC#CCN1C(=O)CC2(CCc3ccccc32)C1=O` (stereo not drawn), for which the Ki was 0.68 µM in assay [1] and over 10 µM in assay [2].

As to `CCN(CC)CC#CCN1C(=O)NC2(CCc3ccccc32)C1=O` (stereo not drawn), in the assay on Mus musculus, the ED50 is 55.4 mg/kg and 153 µmol/kg. Further, the Ki in assay [1] is 1.05 µM; in assay [2] it was over 10 µM.

For `CC(C)N(CC#CCN1C(=O)CC(c2ccccc2)(c2ccccc2)C1=O)C(C)C`, in the assay on Mus musculus, the ED50 is 17.5 mg/kg and 40 µmol/kg. The inhibitory constant (Ki) in assay [1] turned out to be 0.53 µM; in assay [2], 0.44 µM.

The compound `O=C1NC(=O)C(c2ccccc2)(c2ccccc2)N1` [PHENYTOIN] displayed a 50% effective dose (ED50) in the assay with Mus musculus of 16.2 mg/kg.

The record behind these values is ChEMBL document CHEMBL1150993, “Design of dual acting anticonvulsant-antimuscarinic succinimide and hydantoin derivatives” (Bioorg Med Chem Lett, 1997).
